Source: patent US20250288619A1, “PHARMACEUTICAL COMPOSITION, MEGASPHAERA, AND USE THEREOF” (MOON (GUANGZHOU) BIOTECH CO., LTD., priority 2022, published 2025)

Experiments:
strain MNH22004 = assay: Antibiotic sensitivity test by disk diffusion method, strain MNH22004; assay type: cell-based, Megasphaera sp.
Method: (§1) Antibiotic sensitivity tests of the strains MNH05026, MNH22004, and MNH27256: Antibiotic sensitivity tests were carried out on the strain MNH05026 by a disk diffusion method.

strain MNH27256 = assay: Antibiotic sensitivity test by disk diffusion method, strain MNH27256; assay type: cell-based, Megasphaera sp.
Method: as §1

strain MNH05026 = assay: Antibiotic sensitivity test by disk diffusion method, strain MNH05026; assay type: cell-based, Megasphaera sp.
Method: as §1

[1] = test system: ectopic syngeneic liver cancer model; assay: Therapeutic effect of MNH05026 in combination with Lenvatinib on liver cancer; assay type: in vivo, mouse; settings: male BALB/c mice
Text: 104 male BALB/c mice were purchased, and inoculated with tumor cells after the quarantine was completed, to establish an ectopic syngeneic liver cancer model. The day of tumor cell inoculation was D1. […] Mice with abnormal tumor growth were discarded and the remaining mice were randomized into 10 groups according to the tumor volume on that day, with 7 mice per group. […] Group A was the Negative Control group, Group B was the positive control Lenvatinib group, Group J was the Lenvatinib+MNH05026 combination group, and Groups C-I received other test articles in combination with Lenvatinib. On the day of grouping, interventions were carried out according to the grouping. During the experiment, animal characteristics, tumor changes, tumor sizes, and mouse weights were monitored regularly. At the experimental endpoint, body weight changes, tumor volume changes, response rates, and tumor growth inhibition rates were analyzed.
Statistical analysis was performed using Two-Way ANOVA with Dunnett's multiple comparisons at the experimental endpoint. Significance of difference vs. the Control group: not significant (ns), p value≥0.05; *, p value<0.05; **, p value<0.01; ***, p value<0.001; ****, p value<0.0001.
FIGS. 17B and 17C present the mouse tumor volume data as mean±standard deviation (mm3). Statistical analysis was performed using Two-Way ANOVA with Dunnett's multiple comparisons at the experimental endpoint. Significance of difference vs. the Control group: not significant (ns), p value≥0.05; *, p value<0.05; **, p value<0.01; ***, p value<0.001; ****, p value<0.0001.

Compound | Diameter of inhibition zone by MNH22004 (strain MNH22004) [mm] | Sensitivity or resistance of strain MNH22004 to the antibiotic (strain MNH22004) | Diameter of inhibition zone by MNH27256 (strain MNH27256) [mm] | Sensitivity or resistance of strain MNH27256 to the antibiotic (strain MNH27256) | Diameter of inhibition zone by MNH05026 (strain MNH05026) [mm] | Sensitivity or resistance of strain MNH05026 to the antibiotic (strain MNH05026) | Body weight during the experiment [1] | Response rate [1] [%] | Tumor volume at the experimental endpoint vs Control group [1]
CC1(C)S[C@@H]2[C@H](NC(=O)[C@H](N)c3ccccc3)C(=O)N2[C@H]1C(=O)O [Ampicillin] | 0 | resistant | 0 | resistant | 19.91 | sensitive |  |  | 
CO/N=C(\C(=O)N[C@@H]1C(=O)N2C(C(=O)O)=C(CSc3nc(=O)c(=O)[nH]n3C)CS[C@H]12)c1csc(N)n1 [Ceftriaxone] | 12.78 | sensitive | 0 | resistant | 29.42 | sensitive |  |  | 
O=C(N[C@H](CO)[C@H](O)c1ccc([N+](=O)[O-])cc1)C(Cl)Cl [Chloramphenicol] | 33.29 | sensitive | 34.45 | sensitive | 37.02 | sensitive |  |  | 
O=C(O)c1cn(C2CC2)c2cc(N3CCNCC3)c(F)cc2c1=O [Ciprofloxacin] | 35.42 | sensitive | 34.69 | sensitive | 37.66 | sensitive |  |  | 
CC[C@H]1OC(=O)[C@H](C)[C@@H](O[C@H]2C[C@@](C)(OC)[C@@H](O)[C@H](C)O2)[C@H](C)[C@@H](O[C@@H]2O[C@H](C)C[C@H](N(C)C)[C@H]2O)[C@](C)(O)C[C@@H](C)C(=O)[C@H](C)[C@@H](O)[C@]1(C)O [Erythromycin] | 21.03 | sensitive | 9.0 | sensitive | 15.65 | sensitive |  |  | 
COc1cc2nccc(Oc3ccc(NC(=O)NC4CC4)c(Cl)c3)c2cc1C(N)=O [Lenvatinib] |  |  |  |  |  |  | increased steadily | 85.71 | significant decrease
CCC[C@@H]1C[C@@H](C(=O)N[C@@H]([C@H]2O[C@H](SC)[C@H](O)[C@@H](O)[C@H]2O)[C@@H](C)O)N(C)C1 [Lincomycin] | 11.34 | sensitive | 8.81 | sensitive | 38.99 | sensitive |  |  | 
CN(C)[C@@H]1C(O)=C(C(N)=O)C(=O)[C@@]2(O)C(O)=C3C(=O)c4c(O)cccc4[C@@](C)(O)[C@H]3C[C@@H]12 [Tetracycline] | 10.48 |  | 17.75 |  | 21.44 |  |  |  | 
Gentamicin | 9.00 | sensitive | 9.37 | sensitive | 13.97 | sensitive |  |  | 
Penicillin | 0 | resistant | 0 | resistant | 29.75 | sensitive |  |  | 
Trimethoprim-sulfamethoxazole | 17.08 | sensitive | 12.75 | sensitive | 10.65 | sensitive |  |  | 
